Literature values as cited in patent US12150927B2, “Use of cannabidiolic acid in the treatment of autism spectrum disorder and associated disorders” (GW Research Limited, priority 2016, dated 2024).

Conditions: background statement; cited from earlier work

In the case of `Cc1c(C(=O)NN2CCCCC2)nn(-c2ccc(Cl)cc2Cl)c1-c1ccc(Cl)cc1` [rimonabant], the side effects is listed as “serious side effects such as suicide ideation”.
